According to patent US12121515B2, “Piperidine urea derivatives as soluble epoxide hydrolase inhibitors” (NeuroPn Therapeutics, Inc., priority 2021, dated 2024):

What was measured:
[1] = tested on: MPTP induced toxicity on neuronal cells; assay: MPTP induced Parkinsonism in zebrafish, brain pathology (degenerated neurons in mid brain smear); assay type: in vivo; conditions: H&E
Method: Fishes were conditioned to consume three pellets a day. […] To prepare fish feed pellets containing L-DOPA 4 μl of 1 ng/μl of L-DOPA stock solution was distributed across 3 fish feed pellets ‘1.3 μl/pellet. Fish were fed, three pellets a day. Concentration of compounds dosed was controlled by number of pellets and the quantity of compound per pellet. Feed pellets without drug but with vehicle were used as placebo or control.
Brain Pathology: Fish were anesthetized with 15° C. water and sacrificed by a cut between the brain and the spinal cord. Brain was dissected and portions of mid brain were removed with a pin and knife. The brain tissue was smeared on a glass slide and stained with Haematoxylin & Eosin respectively for 2 minutes each followed by water washes. Slides were viewed at 45× magnification using Labomed LX 400 microscope. The number of degenerated neurons were counted for three fields per smear. […]

[2] = tested on: MPTP induced Parkinsonism in zebrafish; assay: MPTP induced Parkinsonism in zebrafish, locomotor activity; assay type: in vivo; conditions: adult zebrafish, MPTP model; oral in feed pellets; may reflect L-DOPA-induced dyskinesia; FIG. 4
Method: The methodology described by Bretaud et al (Neurotoxicol Teratol. 2004 November-December; 26(6), 857-64) was used to study parkinsonism in zebrafish. For MPTP (1-methyl-4-phenyl-1,2,3,6-tetrahydropyridine) induced Parkinsonism, adult zebrafish were injected with 3 μl of 60 μg/g of MPTP as intramuscular injection along the lateral muscles.
Compound B of Formula I or L-DOPA were dosed orally by mixing with the fish feed pellets. Fishes were conditioned to consume three pellets a day. To prepare feed containing 1 ng of Compound B of Formula I, stock of 1 ng/μl Compound B was diluted to 10 μl in Ringer's solution and distributed to 3 fish feed pellets (‘3.3 μl per pellet). Prior to adding Compound B, fish feed pellets were dried at 37° C. for 1 hour to remove moisture. Post addition of Compound B solution and absorption by the pellet, pellets were stored at 4° C. […] Concentration of compounds dosed was controlled by number of pellets and the quantity of compound per pellet. […]
Locomotor Activity: The observation tank was divided into four zones by drawing three vertical lines at equal distances, at a length of 6.25 cm per zone. The number of lines that adult zebrafish crossed over a period of 5 minutes was counted. Fishes were allowed to acclimatize in measurement tanks for a period of 30 minutes before readings were taken. […]

movement behavior on continued treatment (beyond day 3) [2]: heightened movement behavior
SMILES: N[C@@H](Cc1ccc(O)c(O)c1)C(=O)O [L-DOPA]
brain pathology (brain smear appearance, effect on MPTP induced toxicity on neuronal cells) ([1]; FIG. 5): did not have significant effect
change in neurodegenerative cell number compared to MPTP group ([1]; day 8, FIG. 5): non-significant decrease
